“Also recorded” adds a separate entry of the source.
Legend:
[1] = MTT cytotoxicity assay in BHK cells; conditions: hamster
DENV [2] = assay: DENV in-cell western assay in Huh7.5 cells; format: cell-based, dengue virus; conditions: DENV infected Huh7.5 cells, side-by-side comparison, Figure 5A
human plasma protein = assay: Human plasma protein binding
rat plasma protein = assay: Rat plasma protein binding
[3] = tested on: human CYP450s (1A2, 2C9, 2C19, 2D6, and 3A4); assay: Inhibition of five major human CYP450s; conditions: 10 μM
mouse plasma protein = assay: Mouse plasma protein binding
DENV [4] = assay: DENV virus yield reduction assay in BHK cells; format: cell-based, dengue virus (serotype 2, New Guniea C strain); conditions: 0.8 to 20 μM, Figure 5B
DENV [5] = conditions: DENV infected AG129 mice; cited from earlier work

| Human Plasma Protein Binding (human plasma protein) [% bound] | Rat Plasma Protein Binding (rat plasma protein) [% bound] | inhibition on any of the five major drug metabolizing human CYP450s [3] | Mouse Plasma Protein Binding (mouse plasma protein) [% bound] | Compound | CC50 [1] [µM] | antiviral activity in in-cell western assay (DENV [2]) | reduction of DENV titers (DENV [4]) | in vivo antiviral efficacy (viremia) (DENV [5]) |
| --- | --- | --- | --- | --- | --- | --- | --- | --- |
| 65 | 70 | no inhibition | – | COc1ccccc1OCCCCCCN1C[C@H](O)[C@@H](O)[C@H](O)[C@H]1CO [Compound 3s] | – | – | – | – |
| 74 | 68 | – | 77 | OC[C@@H]1[C@@H](O)[C@H](O)[C@@H](O)CN1CCCCCCOc1cc(F)ccc1F [Compound 3l, (2R,3R,4R,5S)-1-(6-(2,5-Difluorophenoxy)hexyl)-2-(hydroxymethyl)piperidine-3,4,5-triol] | – | much improved antiviral activity compared to compound 7; also recorded: the most potent one | being the most potent | – |
| 52 | 49 | no inhibition | – | OC[C@@H]1[C@@H](O)[C@H](O)[C@@H](O)CN1CCCCCCOCc1ccccc1 [Compound 3v, (2R,3R,4R,5S)-1-(6-(Benzyloxy)hexyl)-2-(hydroxymethyl)piperidine-3,4,5-triol] | – | much improved antiviral activity compared to compound 7 | – | – |
| 78 | 71 | no inhibition | 79 | OC[C@@H]1[C@@H](O)[C@H](O)[C@@H](O)CN1CCCCCCOc1cccc(F)c1 [Compound 3j, (2R,3R,4R,5S)-1-(6-(3-Fluorophenoxy)hexyl)-2-(hydroxymethyl)piperidine-3,4,5-triol] | – | much improved antiviral activity compared to compound 7 | – | – |
| 80 | 79 | – | – | Cc1cccc(OCCCCCCN2C[C@H](O)[C@@H](O)[C@H](O)[C@H]2CO)c1 [Compound 3c] | – | – | – | – |

More lines, now with the values behind:

| Compound | Human Plasma Protein Binding (human plasma protein) [% bound] | Rat Plasma Protein Binding (rat plasma protein) [% bound] | inhibition on any of the five major drug metabolizing human CYP450s [3] | Mouse Plasma Protein Binding (mouse plasma protein) [% bound] | CC50 [1] [µM] | antiviral activity in in-cell western assay (DENV [2]) | reduction of DENV titers (DENV [4]) | in vivo antiviral efficacy (viremia) (DENV [5]) |
| --- | --- | --- | --- | --- | --- | --- | --- | --- |
| OC[C@@H]1[C@@H](O)[C@H](O)[C@@H](O)CN1CC/C=C\CCOc1cc(F)ccc1F [Compound 5c, (2R,3R,4R,5S)-1-((Z)-6-(2,5-Difluorophenoxy)hex-3-en-1-yl)-2-(hydroxymethyl)piperidine-3,4,5-triol] | – | – | – | – | > 500 | – | – | – |
| OC[C@@H]1[C@@H](O)[C@H](O)[C@@H](O)CN1CCCCCCOC1CCCCCC1 [Compound 2l, (2R,3R,4R,5S)-1-(6-(Cycloheptyloxy)hexyl)-2-(hydroxymethyl)piperidine-3,4,5-triol] | 71 | 65 | – | – | – | much improved antiviral activity compared to compound 7 | – | – |
| CCCOc1cccc(CCCN2C[C@H](O)[C@@H](O)[C@H](O)[C@H]2CO)c1 [Compound 4b, (2R,3R,4R,5S)-2-(Hydroxymethyl)-1-(3-(3-propoxyphenyl)propyl)piperidine-3,4,5-triol] | 68 | 57 | no inhibition | – | – | much improved antiviral activity compared to compound 7 | – | – |
| OC[C@@H]1[C@@H](O)[C@H](O)[C@@H](O)CN1CCCCCCOc1cccc(C(F)(F)F)c1 [Compound 3p] | 93 | 90 | – | – | – | – | – | – |
| CCCC(CCC)OCCCCCCN1C[C@H](O)[C@@H](O)[C@H](O)[C@H]1CO [Compound 1c] | 91 | 77 | – | – | – | – | – | – |
| CCC(O)(CC)CCCCCCN1C[C@H](O)[C@@H](O)[C@H](O)[C@H]1CO [Compound 7, (2R,3R,4R,5S)-1-(7-Ethyl-7-hydroxynonyl)-2-(hydroxymethyl)piperidine-3,4,5-triol] | 33 | 30 | – | – | – | – | – | reducing viremia |

From article PMC3395807 (Journal of Medicinal Chemistry, 2012)
